# Data: ChEMBL document CHEMBL1121373, “Synthesis and antifertility activity of 3,9-dihydroxy-5,6,6a alpha,6b beta,11,12,12a beta,12b alpha-octahydrodibenzo[a,g]biphenylene, a structural relative of diethylstilbestrol” (1980)
# Columns and labels:
# [1] = species on record: Rattus norvegicus; experiment: Effective dose for antifertility activity in rats; type: functional
# [2] = target: Estrogen receptor (Rattus norvegicus) (UniProt P06211+Q62986); experiment: Estrogenic activity in uterotrophic assay in rats on oral administration relative to diethylstilbestrol; type: functional, organism-based
smiles,measurement,setting,value
Oc1ccc2c(c1)CCC1C2C2CCc3cc(O)ccc3C12 (configuration not stated),ED100,[1],100 µg/day/kg
same,Potency,[2],16%
